In one series the target is T1, plasma DPP-4 activity (Homo sapiens, UniProt P27487).
T1 construct: The plasma DPP-4 activity was determined using a fluorescent method with the substrate Gly-Pro-7-amide-4-methylcoumarin; from tissue; host or cells: human plasma (K2-EDTA blood from T2DM patients)
In words: Emax model of plasma concentration vs DPP-4 inhibition. Particulars: patients with T2DM. It is filed as in vivo.

Series [1] is described as follows: Preliminary efficacy evaluation (FPG, 2 h PPG, HbA1c, GA). It is filed as in vivo, human. The following applies: patients with T2DM. As for the experimental part: Blood samples for determination of fasting plasma glucose (FPG) and 2 hour postprandial plasma glucose (2 h PPG) were collected on day -2, day 7 and day 14. Additionally, blood samples for determination of glycated Hemoglobin A1C (HbA1c) and glycated Albumin (GA) were collected on day -2 and day 14. The changes of the above indexes relative to pre-treatment baseline (day -2) were evaluated and compared to investigate the preliminary efficacy of investigational product.

For series [2] the following is noted: in vivo. The text has this: A population PK/PD (PopPK/PD) model was developed to describe the relationship between cetagliptin and DPP-4 inhibition. A sequential two-step analysis approach to modeling building was implemented. First, a population PK model was developed, and then parameters were fixed to establish the PopPK/PD model. The nonlinear mixed effect modeling method was used to establish the PopPK/PD model. Model selection criteria were based on goodness-of-fit plots, objective function value (OFV, equal to −2 log-likelihood), Akaike information criteria (AIC), and precision of parameter estimates.
A total of 560 plasma concentrations of cetagliptin from 32 patients with T2DM were used for PopPK analysis. The structural model was tested using either one- or two-compartment PK models. […]
The additive error model (Equation 2), proportional error model (Equation 3), and additive and proportional error model (Equation 4) were evaluated to describe the residual variability: […]
Goodness-of-fit plots were assessed to describe the adequacy of the final PopPK/PD model, including observations vs. population predictions, observations vs. individual predictions, conditional weighted residuals (CWRES) vs. population predictions, and CWRES vs. time., A bootstrap resampling procedure was performed to assess the stability of the final PopPK/PD model. […]

T1 sequence (P27487 39-766 limits assumed): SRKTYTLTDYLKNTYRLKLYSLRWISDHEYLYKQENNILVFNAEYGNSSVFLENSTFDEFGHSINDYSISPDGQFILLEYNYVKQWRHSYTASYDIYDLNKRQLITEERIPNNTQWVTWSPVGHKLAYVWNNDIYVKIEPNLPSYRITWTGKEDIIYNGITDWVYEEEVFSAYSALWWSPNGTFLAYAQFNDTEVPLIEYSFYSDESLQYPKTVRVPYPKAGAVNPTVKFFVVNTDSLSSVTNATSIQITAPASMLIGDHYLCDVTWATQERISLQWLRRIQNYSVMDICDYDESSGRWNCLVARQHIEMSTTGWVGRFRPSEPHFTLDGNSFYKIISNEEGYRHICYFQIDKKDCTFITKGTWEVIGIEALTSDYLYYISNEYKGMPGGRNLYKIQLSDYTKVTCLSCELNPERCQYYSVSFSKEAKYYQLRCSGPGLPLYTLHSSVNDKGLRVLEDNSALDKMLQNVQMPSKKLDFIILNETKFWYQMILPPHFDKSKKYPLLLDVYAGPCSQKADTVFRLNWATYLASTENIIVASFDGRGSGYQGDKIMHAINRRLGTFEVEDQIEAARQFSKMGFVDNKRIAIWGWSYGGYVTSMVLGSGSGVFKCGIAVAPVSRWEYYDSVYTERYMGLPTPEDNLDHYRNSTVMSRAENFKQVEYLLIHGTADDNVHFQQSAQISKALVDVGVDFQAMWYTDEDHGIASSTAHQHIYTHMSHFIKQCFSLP

With `C[C@@H]1c2cnc(C(F)(F)F)n2CCN1C(=O)C[C@H](N)Cc1cc(F)c(F)cc1F.O=P(O)(O)O` [Cetagliptin, cetagliptin], at plasma DPP-4 activity (Emax model), the “EC50 (plasma concentration producing half the maximum DPP-4 inhibition)” value is recorded as 5.37 ng/mL. For the same molecule, the “Emax (maximum DPP-4 inhibition, Emax model)” value at plasma DPP-4 activity (plasma concentration vs DPP-4 inhibition) is 92.47%. Also, the “change of FPG relative to baseline (day -2)” value is listed as 0.49 mmol/L in series [1] (50 mg once daily, day 7); 0.56 mmol/L in series [1] (50 mg once daily, day 14); -0.11 mmol/L in series [1] (100 mg once daily, day 7); 0.43 mmol/L in series [1] (100 mg once daily, day 14). The “mean change value of 2h postprandial blood glucose concentration compared with baseline” value is -1.54 ± 2.25 mmol/L in series [1] (50 mg once daily, day 7, 2 h after breakfast); -0.29 ± 2.34 mmol/L in series [1] (50 mg once daily, day 7, 2 h after lunch); -1.30 ± 2.50 mmol/L in series [1] (50 mg once daily, day 7, 2 h after supper); -0.66 ± 2.26 mmol/L in series [1] (50 mg once daily, day 14, 2 h after lunch); -2.64 ± 2.07 mmol/L in series [1] (50 mg once daily, day 14, 2 h after supper); -0.54 ± 2.47 mmol/L in series [1] (100 mg once daily, day 7, 2 h after breakfast). Moreover, the “mean change value of 2h postprandial blood glucose concentration compared with baseline” value is recorded as -0.61 ± 2.16 mmol/L in series [1] (100 mg once daily, day 7, 2 h after lunch); 1.64 ± 3.22 mmol/L in series [1] (100 mg once daily, day 7, 2 h after supper); 1.16 ± 2.05 mmol/L in series [1] (100 mg once daily, day 14, 2 h after lunch); 2.56 ± 2.48 mmol/L in series [1] (100 mg once daily, day 14, 2 h after supper). Moreover, the “change of GA relative to baseline (day -2)” value is reported as 0.53% in series [1] (50 mg once daily, day 14) and -1.70% in series [1] (100 mg once daily, day 14). Besides, the “decrease of HbA1c compared with baseline” value in series [1] (50 mg once daily, day 14) is listed as 0.47%; in series [1] (100 mg once daily, day 14) it was 0.35%. Moreover, the “decrease of 2 h PPG compared with baseline” value in series [1] (50 mg once daily, day 14 after dinner) is listed as 2.64 mmol/L. In addition, the “tvCl2 (typical value of intercompartment clearance)” value in series [2] is listed as 9.671 L/h. For the same molecule, the “tvV (typical value of volume of central compartment distribution)” value in series [2] was 8.668 L.

(Values after PMC10961402, “Safety, tolerability, pharmacokinetics and pharmacokinetic-pharmacodynamic modeling of cetagliptin in patients with type 2 diabetes mellitus” (Frontiers in Endocrinology, 2024).)
